Each structure is given as a SMILES string.

In the experiment the target is T1, Recombinant human CBP containing the bromodomain (CBP-BD (1043-1159)) (Homo sapiens, UniProt Q92793).
T1 construct: Recombinant human CBP bromodomain (CBP-BD (1043-1159)); made in house; host or cells: E. coli BL21-CodonPlus (DE3), modified pET vector
Kind of experiment: CBP Alphascreen binding assay. Particulars: read-out: CREBBP (CBP) IC50. As for the experimental part: CBP Alphascreen Binding Assay
Binding of compounds of Formula (I) with CBP was assessed using Alphascreen™ binding assay. The inhibition of the interaction between the CBP bromodomain and its acetylated target protein was measured quantitatively using recombinant CBP, an acetylated Histone 3 peptide and AlphaScreen™ technology. In absence of inhibition of the CBP protein bound to AlphaScreen™ nickel chelate acceptor beads can interact with the acetylated Histone 3 peptide which was immobilized by the AlphaScreen™ Streptavidin coated beads. This interaction brings donor and acceptor beads in proximity. The close proximity allows the singlet oxygen produced by laser excitation of the donor beads to reach the acceptor beads and generate a luminescence signal. CBP inhibitors result in a decrease in the proximity signal through an inhibition of the CBP—acetylated peptide interaction.
Recombinant human CBP containing the bromodomain (CBP-BD (1043-1159)) was prepared and purified as described in protein expression and purification session. The peptide was human Histone H345-64K56Ac-Biotin (Anaspec CA, USA).
Protocol for CBP assay: All components are prepared in buffer composed of 50 mM HEPES pH 7.5, 50 mM NaCl, 0.01% BSA, 0.01% Triton X-100, 2 mM DTT. Test compounds and DMSO vehicle are diluted 1:50 in buffer and a 4 μL volume was transferred to an Alphaplate. 5.5 μL of CBP protein and 5.5 μL of peptide are added to wells containing 4 μL of various concentrations of test compounds of Formula (I) or DMSO vehicle in an Alphaplate (PerkinElmer GA, USA) and incubated for 1 hour at room temperature. 5 μL donor and acceptor bead mixture was then added with final concentrations of 7.5 μg/ml. 60 minutes after bead addition, Alpha signal was read on the Envision spectrometer (λEx 680 nm, λEm 520-620 nm). Final concentrations of bromodomain proteins and peptide are as shown below.
All data were normalized to the mean of 16 high and 16 low control wells on each plate. A four parameter curve fit of the following formula was then applied: Y=A+((B−A)/(1+((C/x)^D))) Where ‘A’ is the minimum, ‘B’ is the maximum, ‘C’ is the IC50 and ‘D’ is the Hill slope. Protein Expression and Purification
Recombinant human CBP bromodomain (CBP-BD (1043-1159)) was expressed in E. coli cells (in a modified pET vector) with an N-terminal six-His tag and purified using a combination of both IMAC (Ni-affinity) and size exclusion chromatography steps.
Recombinant CBP protein was expressed using the E. coli strain BL21-CodonPlus (DE3) (Agilent Technologies CA, USA). Cells were grown in Terrific Broth (TB) media to an OD600 of 0.92 at 37° C. at which temperature was reduced to 20° C., protein was induced with 1.0 mM isopropyl-β-D-thiogalactopyranoside (“IPTG”) for 20 hours and harvested by centrifugation at 8500×g for 20 minutes. Cells were re-suspended in 0.1M K2PO4 pH 8.0, 250 mM NaCl, 10% Glycerol, 0.75% NP-40, 25 mM Imidazole, with 0.2 mg/ml Lysozyme, 0.2 mM phenylmethanesulfonyl fluoride (“PMSF”), […] (“BME”), 25 μg/ml DNase I, incubated on ice for 30 minutes and lysed with a cell disruptor (MicroFluidics MA, USA). The lysate was clarified by centrifugation at 20,000×g for 1 hour. The protein was captured with Ni-NTA resin (Life Technologies, USA). Contaminating proteins were washed off with 40 mM HEPES pH 7.5, 500 mM NaCl, 5% Glycerol, 5 mM Imidazole, and 5 mM BME. Following 3× wash steps, protein was eluted using 400 mM Imidazole in 40 mM HEPES pH 7.5, 400 mM NaCl, and 5 mM BME. The protein was further purified using a size exclusion column (26/600 Superdex 200, GE Biosciences NJ, USA) in 40 mM HEPES pH 7.5, 250 mM NaCl, 5 mM BME. The protein was aliquoted and flash-frozen in liquid Nitrogen.
(Alpha assays give light when donor and acceptor beads are brought close together.)

T1 sequence (Q92793 1081-1197): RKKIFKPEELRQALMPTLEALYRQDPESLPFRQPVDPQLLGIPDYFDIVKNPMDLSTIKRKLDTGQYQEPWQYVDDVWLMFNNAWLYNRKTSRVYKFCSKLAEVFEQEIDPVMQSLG

The term IC50 denotes the point on the concentration scale where inhibition reaches its midpoint. With `Cc1noc(C)c1-c1cnc2c(c1)c(-c1ccc(C(=O)O)cc1OC1COC1)cn2[C@@H](C)c1ccccn1` [P-0137, (S)-4-(5-(3,5-dimethylisoxazol-4-yl)-1-(1-(pyridin-2-yl)ethyl)-1H-pyrrolo[2,3-b]pyridin-3-yl)-3-(oxetan-3-yloxy)benzoic acid], the IC50 fell in the range of 0.0001 to 1 µM.

In the case of `Cc1noc(C)c1-c1cnc2c(c1)c(-c1ccc(C(=O)O)cc1OCC1CC1)cn2[C@@H](C)c1ccccn1` [P-0138, (S)-3-(cyclopropylmethoxy)-4-(5-(3,5-dimethylisoxazol-4-yl)-1-(1-(pyridin-2-yl)ethyl)-1H-pyrrolo[2,3-b]pyridin-3-yl)benzoic acid], the 50% inhibitory concentration (IC50) lay in the range of 0.0001 to 1 µM.

Consider `Cc1noc(C)c1-c1cnc2c(c1)c(-c1ccc(C(=O)O)cc1OCc1ccccc1)cn2[C@@H](C)c1ccccn1` [P-0139, (S)-3-(benzyloxy)-4-(5-(3,5-dimethylisoxazol-4-yl)-1-(1-(pyridin-2-yl)ethyl)-1H-pyrrolo[2,3-b]pyridin-3-yl)benzoic acid], for which the 50% inhibitory concentration (IC50) lay in the range of 0.0001 to 1 µM.

In the case of `COc1ccc(C(=O)O)cc1-c1cn(C(C)c2ccccc2)c2cc(-c3c(C)noc3C)cnc12` (stereo not shown) [P-0140, 3-(6-(3,5-dimethylisoxazol-4-yl)-1-(1-phenylethyl)-1H-pyrrolo[3,2-b]pyridin-3-yl)-4-methoxybenzoic acid], the half-maximal inhibitory concentration (IC50) lay within 1 to 8 µM.

`Cc1noc(C)c1-c1cnc2c(-c3cc(C(=O)O)ccc3Cl)cn(C(C)c3ccccc3)c2c1` (stereo not shown) [P-0141, 4-chloro-3-(6-(3,5-dimethylisoxazol-4-yl)-1-(1-phenylethyl)-1H-pyrrolo[3,2-b]pyridin-3-yl)benzoic acid]: the IC50 was in the range of 0.0001 to 1 µM.

For the molecule `COc1cc(C(=O)O)ccc1-c1cn([C@@H](C)c2ccccn2)c2cc(-c3c(C)noc3C)cnc12` [P-0142, (S)-4-(6-(3,5-dimethylisoxazol-4-yl)-1-(1-(pyridin-2-yl)ethyl)-1H-pyrrolo[3,2-b]pyridin-3-yl)-3-methoxybenzoic acid], the 50% inhibitory concentration (IC50) was in the range of 0.0001 to 1 µM.

On to `Cc1noc(C)c1-c1cnc2c(CC3CCC3)cn(-c3ccc(O)nc3)c2c1` [P-0143, 5-(3-(cyclobutylmethyl)-6-(3,5-dimethylisoxazol-4-yl)-1H-pyrrolo[3,2-b]pyridin-1-yl)pyridin-2-ol], for which the IC50 lay within 1 to 8 µM.

Take `COc1cc(C(=O)O)cc(O)c1-c1cn([C@@H](C)c2ccccn2)c2ncc(-c3c(C)noc3C)cc12` [P-0144, (S)-4-(5-(3,5-dimethylisoxazol-4-yl)-1-(1-(pyridin-2-yl)ethyl)-1H-pyrrolo[2,3-b]pyridin-3-yl)-3-hydroxy-5-methoxybenzoic acid]: the IC50 lay in the range of 0.0001 to 1 µM.

Take `Cc1noc(C)c1-c1cnc2c(c1)c(-c1ccnc(O)c1)cn2[C@@H](C)c1ccccn1` [P-0145, (S)-4-(5-(3,5-dimethylisoxazol-4-yl)-1-(1-(pyridin-2-yl)ethyl)-1H-pyrrolo[2,3-b]pyridin-3-yl)pyridin-2-ol]: the concentration for half-maximal inhibition (IC50) was in the range of 8 to 1000 µM.

Consider `COc1cc(C(=O)O)cc(OC)c1-c1cn([C@@H](C)c2ccccn2)c2cc(-c3c(C)noc3C)cnc12` [P-0146, (S)-4-(6-(3,5-dimethylisoxazol-4-yl)-1-(1-(pyridin-2-yl)ethyl)-1H-pyrrolo[3,2-b]pyridin-3-yl)-3,5-dimethoxybenzoic acid], for which the IC50 fell in the range of 1 to 8 µM.

As to `CCOc1cc(C(=O)O)cc(OCC)c1-c1cn([C@@H](C)c2ccccn2)c2ncc(-c3c(C)noc3C)cc12` [P-0147, (S)-4-(5-(3,5-dimethylisoxazol-4-yl)-1-(1-(pyridin-2-yl)ethyl)-1H-pyrrolo[2,3-b]pyridin-3-yl)-3,5-diethoxybenzoic acid], the IC50 lay within 0.0001 to 1 µM.

Regarding `CC[C@@H](c1ccccn1)n1cc(-c2cc(C(=O)O)ccc2Cl)c2ncc(-c3c(C)noc3C)cc21` [P-0148, (S)-4-chloro-3-(6-(3,5-dimethylisoxazol-4-yl)-1-(1-(pyridin-2-yl)propyl)-1H-pyrrolo[3,2-b]pyridin-3-yl)benzoic acid], the IC50 is 0.0001 to 1 µM.

Turning to `Cc1noc(C)c1-c1cc2c(cn1)c(CC1CCC1)cn2-c1c(Cl)cc(C(=O)O)cc1Cl` [P-0149, 3,5-dichloro-4-(3-(cyclobutylmethyl)-6-(3,5-dimethylisoxazol-4-yl)-1H-pyrrolo[3,2-c]pyridin-1-yl)benzoic acid], the IC50 was in the range of 0.0001 to 1 µM.

For `Cc1noc(C)c1-c1cnc2c(-c3ccccc3)cn(-c3c(Cl)cc(C(=O)O)cc3Cl)c2c1` [P-0150, 3,5-dichloro-4-(6-(3,5-dimethylisoxazol-4-yl)-3-phenyl-1H-pyrrolo[3,2-b]pyridin-1-yl)benzoic acid], the IC50 was in the range of 0.0001 to 1 µM.

For the molecule `Cc1noc(C)c1-c1cnc2c(C3=CCOCC3)cn(-c3c(Cl)cc(C(=O)O)cc3Cl)c2c1` [P-0151, 3,5-dichloro-4-(3-(3,6-dihydro-2H-pyran-4-yl)-6-(3,5-dimethylisoxazol-4-yl)-1H-pyrrolo[3,2-b]pyridin-1-yl)benzoic acid], the IC50 lay within 0.0001 to 1 µM.

Regarding `COc1cc(C(=O)O)cc(OCC2CC2)c1-c1cn([C@@H](C)c2ccccn2)c2ncc(-c3c(C)noc3C)cc12` [P-0152, (S)-3-(cyclopropylmethoxy)-4-(5-(3,5-dimethylisoxazol-4-yl)-1-(1-(pyridin-2-yl)ethyl)-1H-pyrrolo[2,3-b]pyridin-3-yl)-5-methoxybenzoic acid], the IC50 is 0.0001 to 1 µM.

Regarding `COc1cc(C(=O)O)cc(OCC(F)(F)F)c1-c1cn([C@@H](C)c2ccccn2)c2ncc(-c3c(C)noc3C)cc12` [P-0153, (S)-4-(5-(3,5-dimethylisoxazol-4-yl)-1-(1-(pyridin-2-yl)ethyl)-1H-pyrrolo[2,3-b]pyridin-3-yl)-3-methoxy-5-(2,2,2-trifluoroethoxy)benzoic acid], the half-maximal inhibitory concentration (IC50) was 0.0001 to 1 µM.

As to `Cc1noc(C)c1-c1cnc2c(-c3ccc(C(=O)O)cc3)c(C(F)(F)F)n([C@@H](C)c3ccccn3)c2c1` [P-0154, (S)-4-(6-(3,5-dimethylisoxazol-4-yl)-1-(1-(pyridin-2-yl)ethyl)-2-(trifluoromethyl)-1H-pyrrolo[3,2-b]pyridin-3-yl)benzoic acid], the half-inhibitory concentration (IC50) lay in the range of 0.0001 to 1 µM.

Take `Cc1noc(C)c1-c1cnc2c(-c3ccccc3Cl)cn(C(C)(c3ccccn3)c3ccccn3)c2c1` [P-0155, 4-(3-(2-chloropheny1)-1-(1,1-di(pyridin-2-yl)ethyl)-1H-pyrrolo[3,2-b]pyridin-6-yl)-3,5-dimethylisoxazole]: the 50% inhibitory concentration (IC50) is 0.0001 to 1 µM.

In the case of `Cc1noc(C)c1-c1cnc2c(c1)c(-c1ccc(C(=O)O)cc1OC(F)(F)F)cn2C(C1CC1)C1CC1` [P-0156, 4-(1-(dicyclopropylmethyl)-5-(3,5-dimethylisoxazol-4-yl)-1H-pyrrolo[2,3-b]pyridin-3-yl)-3-(trifluoromethoxy)benzoic acid], the IC50 lay within 0.0001 to 1 µM.

Turning to `Cc1noc(C)c1-c1cnc2c(c1)c(-c1ccc(C(=O)O)cc1OC(F)(F)F)cn2CC1CC(F)(F)C1` [P-0157, 4-(1-((3,3-difluorocyclobutyl)methyl)-5-(3,5-dimethylisoxazol-4-yl)-1H-pyrrolo[2,3-b]pyridin-3-yl)-3-(trifluoromethoxy)benzoic acid], the IC50 is 0.0001 to 1 µM.

On to `Cc1noc(C)c1-c1cnc2c(c1)c(-c1ccc(C(=O)O)cc1OC(F)(F)F)cn2-c1ccccn1` [P-0158, 4-(5-(3,5-dimethylisoxazol-4-yl)-1-(pyridin-2-yl)-1H-pyrrolo[2,3-b]pyridin-3-yl)-3-(trifluoromethoxy)benzoic acid], for which the 50% inhibitory concentration (IC50) fell in the range of 0.0001 to 1 µM.

For the origin of these results see patent US11446287B2, “Compounds and methods for EP300 or CBP modulation and indications therefor” (Opna Immuno-Oncology SA, priority 2019, dated 2022).
